Experimental data reported in patent US20150141336A1, “Pancreatic Peptide Compounds and Use” (Novo Nordisk A/S, priority 2012, published 2015).
Numbered stars: 1 amine (or outer) side, 2 acyl side, 3 side chain; on linkers, the order of the positions; unused ones are H or OH. Side chains are listed from the residue outwards. Peptide text beside a SMILES is read from it. * marks the point of attachment. C18 diacid = O=C(O)CCCCCCCCCCCCCCCCC(=O)*; γGlu = O=C(O)[C@H](CCC(=O)[*:2])N[*:1]; AEEA = NCCOCCOCC(=O)O

Assay: Assay (II) PK i.v. minipig, in vivo half-life
Design: species or system Göttingen mini-pigs
Conditions: male, Göttingen, minipig, iv, Half-life minipig, Assay (II)
Protocol: An assay useful for measuring the pharmacokinetic (PK) profile of the PP peptide is the following mini-pig PK assay.
Five male Göttingen mini-pigs weighing approximately 18 to 22 kg from Ellegaard Göttingen Minipigs NS, Denmark are included in the study. The mini-pigs have two central venous catheters inserted which are used for intra venous (i.v.) dosing and blood sampling. The test compound is dissolved in 50 mM K2HPO4, 0.05% tween 80, pH=8.0 to a concentration of 180 nmol/ml. For comparison a control compound, such as human PP(1-36), may be administered. The pigs are dosed with 6 nmol test compound/kg body weight. Blood samples are taken at the following time points: pre-dose, 30 minutes, 1, 2, 4, 8, 24, 48, 72, 96, 120, 168 and 240 hours post dosing. The blood samples were collected into test tubes containing EDTA buffer for stabilization and kept on ice for max. 20 minutes before centrifugation. The centrifugation procedure to separate plasma may be: 4° C., approx. 2500 g for 10 minutes. Plasma is collected and immediately transferred to Micronic tubes stored at −20° C. until assayed.
The test compounds were assayed in plasma by Turbulent Flow Chromatography coupled to Liquid Chromatography with subsequent Tandem Mass Spectrometric Detection (TFC/LC/MS/MS). Positive mode ionization and Multiple Reaction Monitoring (MRM) of a multiple protonated species fragmented to a singly charged ion was employed for selectivity. The selectivity of the method allows multiple compounds to be quantified in one sample.
The concentrations of the test compound in samples of unknown concentration were calculated using the peak area as a function of amount. Calibration graphs based on plasma samples spiked with the analyte were constructed by regression analysis. Typical dynamic range for standard assay was 1-2000 nmol/I. The method performance was assured by co-assaying quality control (QC) samples in duplicate at three concentration levels.
Stock and working solutions of analytes were prepared in plasma and incubated by 37° C. for 1 hour.
Sample Preparation: 40.0 μl EDTA-plasma was added 160 μl 50% methanol, 1% formic acid, then vortexed and centrifuged at 16457 g at 4° C. for 20 minutes. The supernatant was transferred to a 96 well plate, plates incubated with 0.4% BSA, 37° C. for ½ hour. Injection volume was 25 μl.
The analysis was carried out on a Sciex API 3000 mass spectrometer (MDS/Sciex, Concord, ON, Canada) using a TurbolonSpray interface. The TFC/LC system consisted of two Flux Rheos 2000 quaternary pumps, a Cohesive VIM module (Cohesive Technologies, Franklin, Mass., USA) and a CTC LC/PAL auto sampler (CTC Analytics, Zingen, Switzerland). The centrifuge employed was a HettichMikro 22R (A. Hettich, Tuttlingen, Germany). For sample clean up a TurboFlow C8 column (0.5×50 mm) (Cohesive Technologies/Thermofisher) was used and the LC separation was done on a Proteo 4 μm column (2.0×50 mm) (Phenomenex, Torrance, Calif., USA). Eluents were isocratic and gradient combinations of methanol, acetonitril, Milli-Q water and formic acid.
Non-compartmental analysis (NCA): Plasma concentration-time profiles are analyzed by non-compartmental pharmacokinetics analysis (NCA) using WinNonlin Professional 5.0 (Pharsight Inc., Mountain View, Calif., USA). NCA is performed using the individual plasma concentration-time profiles from each animal.

| Structure (SMILES) | half-life [h] |
| --- | --- |
| CC[C@H](C)[C@H](NC(=O)[C@H](Cc1ccc(O)cc1)NC(=O)[C@H](CCCNC(=N)N)NC(=O)[C@H](CCCNC(=N)N)NC(=O)[C@H](CC(C)C)NC(=O)[C@H](CC(=O)O)NC(=O)[C@H](C)NC(=O)[C@H](C)NC(=O)[C@H](Cc1ccc(O)cc1)NC(=O)[C@H](CCC(N)=O)NC(=O)[C@H](C)NC(=O)[C@H](CCSC)NC(=O)[C@H](CCC(N)=O)NC(=O)[C@H](CCC(=O)O)NC(=O)[C@@H]1CCCN1C(=O)[C@H](CCCCNC(=O)COCCOCCNC(=O)COCCOCCNC(=O)CC[C@H](NC(=O)CCCCCCCCCCCCCCCCC(=O)O)C(=O)O)NC(=O)[C@H](C)NC(=O)[C@H](CC(N)=O)NC(=O)[C@H](CC(=O)O)NC(=O)CNC(=O)[C@@H]1CCCN1C(=O)[C@H](Cc1ccc(O)cc1)NC(=O)[C@@H](NC(=O)[C@@H]1CCCN1C(=O)[C@H](CCC(=O)O)NC(=O)[C@H](CC(C)C)NC(=O)[C@@H]1CCCN1)C(C)C)C(=O)N[C@@H](CC(N)=O)C(=O)N[C@@H](CCSC)C(=O)N[C@@H](CC(C)C)C(=O)N[C@H](C(=O)N[C@@H](CCCNC(=N)N)C(=O)N1CCC[C@H]1C(=O)N[C@@H](CCCNC(=N)N)C(=O)N[C@@H](Cc1ccc(O)cc1)C(N)=O)[C@@H](C)O [Compound U] (H-PLEPVYPGDNAK([AEEA-AEEA-γGlu-C18 diacid])PEQMAQYAADLRRYINMLTRPRY-NH2; N-terminus and C-terminus assumed) | 23 |
| CC[C@H](C)[C@H](NC(=O)[C@H](Cc1ccc(O)cc1)NC(=O)[C@H](CCCNC(=N)N)NC(=O)[C@H](CCCNC(=N)N)NC(=O)[C@H](CC(C)C)NC(=O)[C@H](CC(=O)O)NC(=O)[C@H](C)NC(=O)[C@H](C)NC(=O)[C@H](Cc1ccc(O)cc1)NC(=O)[C@H](CCC(N)=O)NC(=O)[C@H](C)NC(=O)[C@H](CCSC)NC(=O)[C@H](CCCCNC(=O)COCCOCCNC(=O)COCCOCCNC(=O)CC[C@H](NC(=O)CCCCCCCCCCCCCCCCC(=O)O)C(=O)O)NC(=O)[C@H](CCC(=O)O)NC(=O)[C@@H]1CCCN1C(=O)[C@@H](NC(=O)[C@H](C)NC(=O)[C@H](CC(N)=O)NC(=O)[C@H](CC(=O)O)NC(=O)CNC(=O)[C@@H]1CCCN1C(=O)[C@H](Cc1ccc(O)cc1)NC(=O)[C@@H](NC(=O)[C@@H]1CCCN1C(=O)[C@H](CCC(=O)O)NC(=O)[C@@H](N)CC(C)C)C(C)C)[C@@H](C)O)C(=O)N[C@@H](CC(N)=O)C(=O)N[C@@H](CCSC)C(=O)N[C@@H](CC(C)C)C(=O)N[C@H](C(=O)N[C@@H](CCCNC(=N)N)C(=O)N1CCC[C@H]1C(=O)N[C@@H](CCCNC(=N)N)C(=O)N[C@@H](Cc1ccc(O)cc1)C(N)=O)[C@@H](C)O [Compound AZ] (H-LEPVYPGDNATPEK([AEEA-AEEA-γGlu-C18 diacid])MAQYAADLRRYINMLTRPRY-NH2; N-terminus and C-terminus assumed) | 20 |
| CC[C@H](C)[C@H](NC(=O)[C@H](Cc1ccc(O)cc1)NC(=O)[C@H](CCCNC(=N)N)NC(=O)[C@H](CCCNC(=N)N)NC(=O)[C@H](CC(C)C)NC(=O)[C@H](CC(=O)O)NC(=O)[C@H](C)NC(=O)[C@H](C)NC(=O)[C@H](Cc1ccc(O)cc1)NC(=O)[C@H](CCC(N)=O)NC(=O)[C@H](C)NC(=O)[C@H](CCSC)NC(=O)[C@H](CCC(N)=O)NC(=O)[C@H](CCC(=O)O)NC(=O)[C@@H]1CCCN1C(=O)[C@@H](NC(=O)[C@H](C)NC(=O)[C@H](CC(N)=O)NC(=O)[C@H](CC(=O)O)NC(=O)CNC(=O)[C@@H]1CCCN1C(=O)[C@H](Cc1ccc(O)cc1)NC(=O)[C@@H](NC(=O)[C@@H]1CCCN1C(=O)[C@H](CCC(=O)O)NC(=O)[C@H](CCCCNC(=O)COCCOCCNC(=O)COCCOCCNC(=O)CC[C@H](NC(=O)CCCCCCCCCCCCCCCCC(=O)O)C(=O)O)NC(=O)[C@@H]1CCCN1)C(C)C)[C@@H](C)O)C(=O)N[C@@H](CC(N)=O)C(=O)N[C@@H](CCSC)C(=O)N[C@@H](CC(C)C)C(=O)N[C@H](C(=O)N[C@@H](CCCNC(=N)N)C(=O)N1CCC[C@H]1C(=O)N[C@@H](CCCNC(=N)N)C(=O)N[C@@H](Cc1ccc(O)cc1)C(N)=O)[C@@H](C)O [Compound AE] | 45 |

The remaining lines, values ahead:

| half-life [h] | Structure (SMILES) |
| --- | --- |
| 17 | CC[C@H](C)[C@H](NC(=O)[C@H](Cc1ccc(O)cc1)NC(=O)[C@H](CCCNC(=N)N)NC(=O)[C@H](CCCNC(=N)N)NC(=O)[C@H](CC(C)C)NC(=O)[C@H](CC(=O)O)NC(=O)[C@H](C)NC(=O)[C@H](C)NC(=O)[C@H](Cc1ccc(O)cc1)NC(=O)[C@H](CCC(N)=O)NC(=O)[C@H](C)NC(=O)[C@H](CCSC)NC(=O)[C@H](CCC(N)=O)NC(=O)[C@H](CCC(=O)O)NC(=O)[C@@H]1CCCN1C(=O)[C@@H](NC(=O)[C@H](C)NC(=O)[C@H](CC(N)=O)NC(=O)[C@H](CCCCNC(=O)COCCOCCNC(=O)COCCOCCNC(=O)CC[C@H](NC(=O)CCCCCCCCCCCCCCCCC(=O)O)C(=O)O)NC(=O)CNC(=O)[C@@H]1CCCN1C(=O)[C@H](Cc1ccc(O)cc1)NC(=O)[C@@H](NC(=O)[C@@H]1CCCN1C(=O)[C@H](CCC(=O)O)NC(=O)[C@@H](N)CC(C)C)C(C)C)[C@@H](C)O)C(=O)N[C@@H](CC(N)=O)C(=O)N[C@@H](CCSC)C(=O)N[C@@H](CC(C)C)C(=O)N[C@H](C(=O)N[C@@H](CCCNC(=N)N)C(=O)N1CCC[C@H]1C(=O)N[C@@H](CCCNC(=N)N)C(=O)N[C@@H](Cc1ccc(O)cc1)C(N)=O)[C@@H](C)O [Compound BF] |
| 59 | CC[C@H](C)[C@H](NC(=O)[C@H](Cc1ccc(O)cc1)NC(=O)[C@H](CCCNC(=N)N)NC(=O)[C@H](CCCNC(=N)N)NC(=O)[C@H](CC(C)C)NC(=O)[C@H](CC(=O)O)NC(=O)[C@H](C)NC(=O)[C@H](CCCCNC(=O)COCCOCCNC(=O)COCCOCCNC(=O)CC[C@H](NC(=O)CCCCCCCCCCCCCCCCC(=O)O)C(=O)O)NC(=O)[C@H](Cc1ccc(O)cc1)NC(=O)[C@H](CCC(N)=O)NC(=O)[C@H](C)NC(=O)[C@H](CCSC)NC(=O)[C@H](CCC(N)=O)NC(=O)[C@H](CCC(=O)O)NC(=O)[C@@H]1CCCN1C(=O)[C@@H](NC(=O)[C@H](C)NC(=O)[C@H](CC(N)=O)NC(=O)[C@H](CC(=O)O)NC(=O)CNC(=O)[C@@H]1CCCN1C(=O)[C@H](Cc1ccc(O)cc1)NC(=O)[C@@H](NC(=O)[C@@H]1CCCN1C(=O)[C@H](CCC(=O)O)NC(=O)[C@@H](N)CC(C)C)C(C)C)[C@@H](C)O)C(=O)N[C@@H](CC(N)=O)C(=O)N[C@@H](CCSC)C(=O)N[C@@H](CC(C)C)C(=O)N[C@H](C(=O)N[C@@H](CCCNC(=N)N)C(=O)N1CCC[C@H]1C(=O)N[C@@H](CCCNC(=N)N)C(=O)N[C@@H](Cc1ccc(O)cc1)C(N)=O)[C@@H](C)O [Compound AU] (H-LEPVYPGDNATPEQMAQYK([AEEA-AEEA-γGlu-C18 diacid])ADLRRYINMLTRPRY-NH2; N-terminus and C-terminus assumed) |
| 80 | CC[C@H](C)[C@H](NC(=O)[C@H](Cc1ccc(O)cc1)NC(=O)[C@H](CCCNC(=N)N)NC(=O)[C@H](CCCNC(=N)N)NC(=O)[C@H](CC(C)C)NC(=O)[C@H](CC(=O)O)NC(=O)[C@H](C)NC(=O)[C@H](C)NC(=O)[C@H](Cc1ccc(O)cc1)NC(=O)[C@H](CCC(N)=O)NC(=O)[C@H](C)NC(=O)[C@H](CCSC)NC(=O)[C@H](CCC(N)=O)NC(=O)[C@H](CCC(=O)O)NC(=O)[C@@H]1CCCN1C(=O)[C@@H](NC(=O)[C@H](C)NC(=O)[C@H](CC(N)=O)NC(=O)[C@H](CC(=O)O)NC(=O)CNC(=O)[C@@H]1CCCN1C(=O)[C@H](Cc1ccc(O)cc1)NC(=O)[C@@H](NC(=O)[C@@H]1CCCN1C(=O)[C@H](CCC(=O)O)NC(=O)[C@@H](N)CC(C)C)C(C)C)[C@@H](C)O)C(=O)N[C@@H](CC(N)=O)C(=O)N[C@@H](CCSC)C(=O)N[C@@H](CCCCNC(=O)COCCOCCNC(=O)COCCOCCNC(=O)CC[C@H](NC(=O)CCCCCCCCCCCCCCCCC(=O)O)C(=O)O)C(=O)N[C@H](C(=O)N[C@@H](CCCNC(=N)N)C(=O)N1CCC[C@H]1C(=O)N[C@@H](CCCNC(=N)N)C(=O)N[C@@H](Cc1ccc(O)cc1)C(N)=O)[C@@H](C)O [Compound AK] (H-LEPVYPGDNATPEQMAQYAADLRRYINMK([AEEA-AEEA-γGlu-C18 diacid])TRPRY-NH2; N-terminus and C-terminus assumed) |
